In patent publication US9328083B2, “2-aminated methylene or 2-esterified methylene tanshinone derivatives, and preparation method and application thereof” (HANGZHOU BENSHENG PHARMACEUTICAL CO., LTD., priority 2011, dated 2016):
In brackets after ≈: the same amount, converted by molar mass.

Key:
[1] = test system: MGC 803 (human gastric cancer cell); test: MTT growth inhibition of human solid tumor cells, 72 h; type: cell-based; conditions: Homo sapiens, MGC-803, 72 h; for IC50: read-out: IC50; for IC90: read-out: IC90
How it was run: (§1)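 4000 cells/well; DMEM high glucose + 10% FBS; 37° C, 5% CO2, 24 h attachment. Compounds from 10 mg/mL DMSO stock, diluted in medium to graded doses. Viable cells read after exposure.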

A549 (human lung cancer) = test: as above; type: cell-based; conditions: Homo sapiens, A549, 72 h; for IC50: read-out: IC50; for IC90: read-out: IC90
How it was run: as §1

[2] = test system: Hela (human cervical cancer cell); test: as above; type: cell-based; conditions: Homo sapiens, HeLa, 72 h; for IC50: read-out: IC50; for IC90: read-out: IC90
How it was run: as §1

[3] = test system: CaES-17 (esophageal cancer cell); test: as above; type: cell-based; conditions: Homo sapiens, CaEs17, CaEs-17, 72 h; for IC50: read-out: IC50; for IC90: read-out: IC90
How it was run: as §1

[4] = test system: PANC-1 (pancreatic cancer); test: as above; type: cell-based; conditions: Homo sapiens, PANC-1, 72 h; for IC50: read-out: IC50; for IC90: read-out: IC90
How it was run: as §1

[5] = test system: Hep G2 (human liver cancer cell); test: as above; type: cell-based; conditions: Homo sapiens, HepG2, Hep G2, 72 h; for IC50: read-out: IC50; for IC90: read-out: IC90
How it was run: as §1

[6] = test system: RKO (human colon adenocarcinoma cell); test: as above; type: cell-based; conditions: Homo sapiens; for IC50: read-out: IC50; for IC90: read-out: IC90
How it was run: as §1

[7] = test system: U87 MG (malignant glioma cell); test: as above; type: cell-based; conditions: Homo sapiens, U-87 MG, U87-MG, 72 h; for IC50: read-out: IC50; for IC90: read-out: IC90
How it was run: as §1

[8] = test system: SK-OV-3 (ovarian cancer cell); test: as above; type: cell-based; conditions: Homo sapiens, SK-OV-3, 72 h; for IC50: read-out: IC50; for IC90: read-out: IC90
How it was run: as §1

[9] = test system: CNE (nasopharyngeal carcinoma cell); test: as above; type: cell-based; conditions: Homo sapiens; for IC50: read-out: IC50; for IC90: read-out: IC90
How it was run: as §1

[10] = test system: Hep-2 (laryngeal carcinoma); test: as above; type: cell-based; conditions: Homo sapiens, HEp-2, 72 h; for IC50: read-out: IC50; for IC90: read-out: IC90
How it was run: as §1

PC-3 (prostate cancer) = test: as above; type: cell-based; conditions: Homo sapiens, PC-3, 72 h; for IC50: read-out: IC50; for IC90: read-out: IC90
How it was run: as §1

[11] = test system: Becap37 (human breast cancer cell); test: as above; type: cell-based; conditions: Homo sapiens, Becap-37, 72 h; for IC50: read-out: IC50; for IC90: read-out: IC90
How it was run: as §1

MG63 (osteosarcoma) = test: as above; type: cell-based; conditions: Homo sapiens, MG-63, 72 h; for IC50: read-out: IC50; for IC90: read-out: IC90
How it was run: as §1

[12] = test system: H9 (acute lymphoblastic leukemia, ALL); test: MTT growth inhibition of leukemia cells, 72 h; type: cell-based, human; conditions: Homo sapiens, H9, 72 h; for IC50: read-out: IC50; for IC90: read-out: IC90
How it was run: (§2)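 Readout is MTT viable-cell determination after 72 h exposure (37° C, 5% CO2) to compounds added at several concentrations one day after plating 6000 cells/well. Medium RPMI-1640 plus 10% fetal bovine serum; working solutions made from a 10 mg/mL DMSO stock.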

[13] = test system: Kasumi-1 (acute myeloid leukemia M2 type, AML-M2); test: MTT growth inhibition of leukemia cells, 72 h; type: cell-based, human; conditions: Homo sapiens, Kasumi-1, 72 h; for IC50: read-out: IC50; for IC90: read-out: IC90
How it was run: as §2

[14] = test system: Jurkat (acute lymphoblastic leukemia, ALL); test: MTT growth inhibition of leukemia cells, 72 h; type: cell-based, human; conditions: Homo sapiens, 72 h; for IC50: read-out: IC50; for IC90: read-out: IC90
How it was run: as §2

[15] = test system: K562/adr (drug-resistant, chronic myeloid leukemia, CML); test: MTT growth inhibition of leukemia cells, 72 h; type: cell-based, human; conditions: Homo sapiens, K562/Adr; for IC50: read-out: IC50; for IC90: read-out: IC90
How it was run: as §2

[16] = test system: NB4 (acute promyelocytic leukemia, AML); test: MTT growth inhibition of leukemia cells, 72 h; type: cell-based, human; conditions: Homo sapiens, NB4, 72 h; for IC50: read-out: IC50; for IC90: read-out: IC90
How it was run: as §2

[17] = test system: RPMI8226 (multiple myeloma); test: MTT growth inhibition of multiple myeloma cells, 72 h; type: cell-based, human; conditions: Homo sapiens, RPMI 8226, 72 h; for IC50: read-out: IC50; for IC90: read-out: IC90
How it was run: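 Viability read by MTT after 72 h at 37° C, 5% CO2: compounds from a 10 mg/mL DMSO stock were diluted in medium and added at several concentrations to 6000 RPMI8226 cells per well in 1640 medium plus 10% FBS.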

SMILES	IC50 [1]	IC90 [1]	IC50 (A549 (human lung cancer))	IC90 (A549 (human lung cancer))	IC50 [2]	IC90 [2]	IC50 [3]	IC90 [3]	IC50 [4]	IC90 [4]	IC50 [5]	IC90 [5]	IC50 [6]	IC90 [6]	IC50 [7]	IC90 [7]	IC50 [8]	IC90 [8]	IC50 [9]	IC90 [9]	further results
CC(=O)OCCN(C)Cc1oc2c(c1C)C(=O)C(=O)c1c-2ccc2c(C)cccc12 [BS-TA-61]	2.47 µg/mL (≈ 6.09 µM)	8.33 µg/mL (≈ 20.5 µM)	2.76 µg/mL (≈ 6.81 µM)	6.41 µg/mL (≈ 15.8 µM)	1.49 µg/mL (≈ 3.67 µM)	4 µg/mL (≈ 9.87 µM)	3 µg/mL (≈ 7.4 µM)	5.07 µg/mL (≈ 12.5 µM)	0.74 µg/mL (≈ 1.83 µM)	4.95 µg/mL (≈ 12.2 µM)	2.95 µg/mL (≈ 7.28 µM)	9.75 µg/mL (≈ 24 µM)	0.46 µg/mL (≈ 1.13 µM)	6.98 µg/mL (≈ 17.2 µM)	2.59 µg/mL (≈ 6.39 µM)	3.87 µg/mL (≈ 9.54 µM)	5.83 µg/mL (≈ 14.4 µM)	9.47 µg/mL (≈ 23.4 µM)	2.8 µg/mL (≈ 6.91 µM)	7.2 µg/mL (≈ 17.8 µM)	IC50 [10]: 0.84 µg/mL (≈ 2.07 µM); IC90 [10]: 2.52 µg/mL (≈ 6.22 µM); IC50 (PC-3 (prostate cancer)): 2.65 µg/mL (≈ 6.54 µM); IC90 (PC-3 (prostate cancer)): 6.49 µg/mL (≈ 16 µM); IC50 [11]: 2.54 µg/mL (≈ 6.26 µM); IC90 [11]: 4.92 µg/mL (≈ 12.1 µM); IC50 (MG63 (osteosarcoma)): 2.34 µg/mL (≈ 5.77 µM); IC90 (MG63 (osteosarcoma)): 6.79 µg/mL (≈ 16.7 µM); IC50 [12]: 0.57 µg/mL (≈ 1.41 µM); IC90 [12]: 0.9 µg/mL (≈ 2.22 µM); IC50 [13]: 0.31 µg/mL (≈ 0.765 µM); IC90 [13]: 1.28 µg/mL (≈ 3.16 µM); IC50 [14]: 0.56 µg/mL (≈ 1.38 µM); IC90 [14]: 0.99 µg/mL (≈ 2.44 µM); IC50 [15]: 0.61 µg/mL (≈ 1.5 µM); IC90 [15]: 1.61 µg/mL (≈ 3.97 µM); IC50 [16]: 0.73 µg/mL (≈ 1.8 µM); IC90 [16]: 1.9 µg/mL (≈ 4.69 µM); IC50 [17]: 1.82 µg/mL (≈ 4.49 µM); IC90 [17]: 3.92 µg/mL (≈ 9.67 µM)
Cc1c(CN(C)CCOC(=O)CCC(=O)O)oc2c1C(=O)C(=O)c1c-2ccc2c(C)cccc12 [BS-TA-73]	0.84 µg/mL (≈ 1.81 µM)	4.9 µg/mL (≈ 10.6 µM)	1.72 µg/mL (≈ 3.71 µM)	4.79 µg/mL (≈ 10.3 µM)	1 µg/mL (≈ 2.16 µM)	3.81 µg/mL (≈ 8.22 µM)	1.14 µg/mL (≈ 2.46 µM)	1.86 µg/mL (≈ 4.01 µM)	1.07 µg/mL (≈ 2.31 µM)	5 µg/mL (≈ 10.8 µM)	1.39 µg/mL (≈ 3 µM)	4.64 µg/mL (≈ 10 µM)	0.2 µg/mL (≈ 0.432 µM)	0.87 µg/mL (≈ 1.88 µM)	1.19 µg/mL (≈ 2.57 µM)	3.44 µg/mL (≈ 7.42 µM)	3.54 µg/mL (≈ 7.64 µM)	7.27 µg/mL (≈ 15.7 µM)	1.38 µg/mL (≈ 2.98 µM)	3.7 µg/mL (≈ 7.98 µM)	IC50 [10]: 0.81 µg/mL (≈ 1.75 µM); IC90 [10]: 3.21 µg/mL (≈ 6.93 µM); IC50 (PC-3 (prostate cancer)): 1.73 µg/mL (≈ 3.73 µM); IC90 (PC-3 (prostate cancer)): 7.04 µg/mL (≈ 15.2 µM); IC50 [11]: 1.06 µg/mL (≈ 2.29 µM); IC90 [11]: 1.91 µg/mL (≈ 4.12 µM); IC50 (MG63 (osteosarcoma)): 1.01 µg/mL (≈ 2.18 µM); IC90 (MG63 (osteosarcoma)): 3.71 µg/mL (≈ 8 µM); IC50 [12]: 0.19 µg/mL (≈ 0.41 µM); IC90 [12]: 0.97 µg/mL (≈ 2.09 µM); IC50 [13]: 0.27 µg/mL (≈ 0.583 µM); IC90 [13]: 0.73 µg/mL (≈ 1.58 µM); IC50 [14]: 0.98 µg/mL (≈ 2.11 µM); IC90 [14]: 3.4 µg/mL (≈ 7.34 µM); IC50 [15]: 1.38 µg/mL (≈ 2.98 µM); IC90 [15]: 2.74 µg/mL (≈ 5.91 µM); IC50 [16]: 0.21 µg/mL (≈ 0.453 µM); IC90 [16]: 0.68 µg/mL (≈ 1.47 µM); IC50 [17]: 0.38 µg/mL (≈ 0.82 µM); IC90 [17]: 1.55 µg/mL (≈ 3.34 µM)
